The values below come from patent publication US20240158385A1, “NOVEL COMPOUNDS” (Cerevance, Inc., priority 2021, published 2024).

Like-named read-outs stand apart in the source and are kept apart here. Where only a bound is given, the exact number is not on record here.

The experiment deals with T1, human KCNK13 (Homo sapiens, UniProt Q9HB14).
T1 construct: expressed in transfected cells
T1 sequence (Q9HB14 1-408): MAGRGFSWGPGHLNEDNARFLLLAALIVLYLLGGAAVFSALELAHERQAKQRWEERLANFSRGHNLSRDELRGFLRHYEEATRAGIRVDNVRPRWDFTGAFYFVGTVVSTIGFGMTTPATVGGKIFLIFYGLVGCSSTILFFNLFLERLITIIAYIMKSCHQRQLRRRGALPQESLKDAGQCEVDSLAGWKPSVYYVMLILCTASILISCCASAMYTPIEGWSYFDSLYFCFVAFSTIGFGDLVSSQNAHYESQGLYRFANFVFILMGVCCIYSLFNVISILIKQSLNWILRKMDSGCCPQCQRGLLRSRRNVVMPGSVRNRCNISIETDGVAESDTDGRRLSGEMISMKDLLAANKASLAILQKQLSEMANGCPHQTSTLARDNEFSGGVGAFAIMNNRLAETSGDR
Briefly: KCNK13 antagonist activity, thallium (Tl+) flux FLIPR assay. In kind it is cell-based. Put shortly: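 HEK 293 cells stably expressing human KCNK13 loaded with Tl+-sensitive dye for 1 h at room temperature. Compounds (10-point half-log curves) preincubated 15 min before thallium sulfate stimulus, fluorescence tracked by FLIPR. IC50 from ten-point curves, each point the mean of two wells.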

Setting [1] is: HEK 293 cells stably expressing human KCNK13, Tl+ sensitive dye, FLIPR, compounds 15 minutes prior to thallium sulfate, 10 point half log curves from 10 PM, read-out: hKCNK13 IC50.

`Nc1nonc1-c1nc2cc(F)cnc2n1Cc1ccc(Cl)nc1` [Example 29, 4-[3-[(6-chloropyridin-3-yl)methyl]-6-fluoro-imidazo[4,5-b]pyridin-2-yl]-1,2,5-oxadiazol-3-amine] returned an IC50 of less than 50 nM.

In the case of `N#Cc1ncc(Cn2c(-c3nonc3N)nc3cccnc32)cn1` [Example 11, 5-[[2-(4-amino-1,2,5-oxadiazol-3-yl)imidazo[4,5-b]pyridin-3-yl]methyl]pyrimidine-2-carbonitrile], the IC50 under setting [1] was less than 200 nM.

Take `Cn1nccc1-c1nc2ccccc2n1Cc1cccnc1` [Example 114, 2-(1-methylpyrazol-5-yl)-1-(pyridin-3-ylmethyl)benzimidazole]: the IC50 under setting [1] is less than 1000 nM.

Turning to `CNc1ccc(Cn2c(-c3nonc3C)nc3ccccc32)cn1` [Example 73, N-methyl-5-[[2-(4-methyl-1,2,5-oxadiazol-3-yl)benzimidazol-1-yl]methyl]pyridin-2-amine], under setting [1], the IC50 was less than 500 nM.

As to `Cc1nonc1-c1nc2c(F)cc(F)cc2n1Cc1cccnn1` (single isomer, unassigned) [Example 147, 3-(4,6-difluoro-1-(pyridazin-3-ylmethyl)-benzimidazol-2-yl)-4-methyl-1,2,5-oxadiazole], the IC50 under setting [1] is less than 200 nM.

With `Cc1nsnc1-c1nc2cccc(F)c2n1Cc1cccnn1` [Example 139, 3-(7-fluoro-1-(pyridazin-3-ylmethyl)-benzimidazol-2-yl)-4-methyl-1,2,5-thiadiazole], under setting [1], the IC50 was less than 100 nM.

Consider `N#Cc1ccc(Cn2c(-c3nonc3N)nc3c(F)cccc32)cn1` [Example 8, 5-[[2-(4-amino-1,2,5-oxadiazol-3-yl)-4-fluoro-benzimidazol-1-yl]methyl]pyridine-2-carbonitrile], for which the IC50 under setting [1] was less than 100 nM.

With `Cc1nonc1-c1nc2ccccc2n1Cc1ccc(S(C)(=O)=O)nc1` [Example 58, 3-methyl-4-[1-[(6-(methylsulfonyl)pyridin-3-yl)methyl]benzimidazol-2-yl]-1,2,5-oxadiazole], the IC50 under setting [1] is less than 100 nM.

In the case of `Nc1nocc1-c1nc2cccc(F)c2n1Cc1cccnn1` [Example 158, 4-(7-fluoro-1-(pyridazin-3-ylmethyl)-benzimidazol-2-yl)isoxazol-3-amine], under setting [1], the IC50 was less than 5000 nM.

Turning to `CCS(=O)(=O)c1ccc(Cn2c(-c3nonc3C)nc3ccccc32)cn1` [Example 180, 3-(1-((6-(ethylsulfonyl)pyridin-3-yl)methyl)-benzimidazol-2-yl)-4-methyl-1,2,5-oxadiazole], under setting [1], the IC50 is less than 500 nM.

On to `Nc1nonc1-c1nc2c(F)cccc2n1Cc1ccncn1` (single isomer, unassigned) [Example 135, 4-(4-fluoro-1-(pyrimidin-4-ylmethyl)-benzimidazol-2-yl)-1,2,5-oxadiazol-3-amine], for which the IC50 under setting [1] was less than 200 nM.

Take `CNc1nsnc1-c1nc2c(F)cccc2n1Cc1cccnn1` [Example 144, 4-(4-fluoro-1-(pyridazin-3-ylmethyl)-benzimidazol-2-yl)-N-methyl-1,2,5-thiadiazol-3-amine]: the IC50 under setting [1] was less than 1000 nM.

Regarding `Cc1ocnc1-c1nc2ccccc2n1Cc1cccnc1` [Example 103, 5-methyl-4-[1-(pyridin-3-ylmethyl)benzimidazol-2-yl]oxazole], the IC50 under setting [1] is less than 200 nM.

As to `CCc1nonc1-c1nc2ccccc2n1Cc1cccnc1` [Example 116, 3-ethyl-4-[1-(pyridin-3-ylmethyl)benzimidazol-2-yl]-1,2,5-oxadiazole], the IC50 under setting [1] is less than 1000 nM.

For the compound `Nc1nonc1-c1nc2cccc(F)c2n1Cc1ccc(Cl)nn1` (single isomer, unassigned) [Example 148, 4-(1-((6-chloropyridazin-3-yl)methyl)-7-fluoro-benzimidazol-2-yl)-1,2,5-oxadiazol-3-amine], the IC50 under setting [1] was less than 50 nM.

In the case of `Cc1nonc1-c1nc2ccccc2n1Cc1ccc(Cl)nc1` [Example 60, 3-[1-[(6-chloropyridin-3-yl)methyl]benzimidazol-2-yl]-4-methyl-1,2,5-oxadiazole], the IC50 under setting [1] was less than 100 nM.

Take `Cc1nonc1-c1nc2cccc(N)c2n1Cc1cccnc1` [Example 72, 2-(4-methyl-1,2,5-oxadiazol-3-yl)-3-(pyridin-3-ylmethyl)benzimidazol-4-amine]: the IC50 under setting [1] is less than 500 nM.

Take `Cc1cn(C)nc1-c1nc2ccccc2n1Cc1cccnc1` [Example 113, 2-(1,4-dimethylpyrazol-3-yl)-1-(pyridin-3-ylmethyl)benzimidazole]: the IC50 under setting [1] is less than 500 nM.

On to `N#Cc1ccc(Cn2c(-c3nonc3N)nc3c(F)cccc32)nn1` (single isomer, unassigned) [Example 175, 6-((2-(4-amino-1,2,5-oxadiazol-3-yl)-4-fluoro-benzimidazol-1-yl)methyl)pyridazine-3-carbonitrile], for which, under setting [1], the IC50 was less than 200 nM.

For the compound `Nc1nonc1-c1nc2c(F)cccc2n1Cc1ccnnc1` (single isomer, unassigned) [Example 133, 4-(4-fluoro-1-(pyridazin-4-ylmethyl)-benzimidazol-2-yl)-1,2,5-oxadiazol-3-amine], under setting [1], the IC50 is less than 100 nM.

With `Nc1nonc1-c1nc2c(F)ccc(F)c2n1Cc1cccnc1` [Example 22, 4-[4,7-difluoro-1-(pyridin-3-ylmethyl)benzimidazol-2-yl]-1,2,5-oxadiazol-3-amine], the IC50 under setting [1] was less than 50 nM.

Turning to `C[C@@H](c1cccnc1)n1c(-c2nonc2N)nc2cccc(F)c21` [Example 161, (S)-4-(7-fluoro-1-(1-(pyridin-3-yl)ethyl)-benzimidazol-2-yl)-1,2,5-oxadiazol-3-amine], the concentration for half-maximal inhibition (IC50) under setting [1] was less than 1000 nM.

In the case of `CCOc1ccc(Cn2c(-c3nonc3C)nc3c(F)cccc32)cn1` [Example 48, 3-[1-[(6-ethoxypyridin-3-yl)methyl]-4-fluoro-benzimidazol-2-yl]-4-methyl-1,2,5-oxadiazole], under setting [1], the IC50 was less than 1000 nM.

In the case of `Nc1nonc1-c1nc2cc(F)cc(F)c2n1Cc1cccnn1` [Example 141, 4-(5,7-difluoro-1-(pyridazin-3-ylmethyl)-benzimidazol-2-yl)-1,2,5-oxadiazol-3-amine], the IC50 under setting [1] is less than 100 nM.

Regarding `Cc1ccc(Cn2c(-c3nonc3N)nc3c(F)cccc32)nn1` (single isomer, unassigned) [Example 169, 4-(4-fluoro-1-((6-methylpyridazin-3-yl)methyl)-benzimidazol-2-yl)-1,2,5-oxadiazol-3-amine], under setting [1], the IC50 is less than 200 nM.

Consider `COc1cc(Cn2c(-c3nonc3C)nc3ccccc32)ccn1` [Example 66, 3-[1-[(2-methoxypyridin-4-yl)methyl]benzimidazol-2-yl]-4-methyl-1,2,5-oxadiazole], for which the IC50 under setting [1] was less than 200 nM.

As to `CCc1nsnc1-c1nc2ccccc2n1Cc1cccnc1` [Example 105, 3-ethyl-4-[1-(pyridin-3-ylmethyl)benzimidazol-2-yl]-1,2,5-thiadiazole], the IC50 under setting [1] was less than 200 nM.

As to `Cc1nonc1-c1nc2ccc(F)c(F)c2n1Cc1cncnc1` [Example 7, 3-[6,7-difluoro-1-(pyrimidin-5-ylmethyl)benzimidazol-2-yl]-4-methyl-1,2,5-oxadiazole], the IC50 under setting [1] was less than 100 nM.

Take `Cc1nonc1-c1nc2c(F)cccc2n1Cc1cccnc1` (single isomer, unassigned) [Example 123, 3-[4-fluoro-1-(pyridin-3-ylmethyl)benzimidazol-2-yl]-4-methyl-1,2,5-oxadiazole]: the IC50 under setting [1] is less than 50 nM.

For `Nc1nonc1-c1nc2c(F)cccc2n1Cc1cccnc1` (single isomer, unassigned) [Example 87, 4-[4-fluoro-1-(pyridin-3-ylmethyl)benzimidazol-2-yl]-1,2,5-oxadiazol-3-amine], under setting [1], the IC50 was less than 50 nM.

Turning to `Nc1nonc1-c1nc2cccc(F)c2n1Cc1ccc(OC(F)(F)F)nc1` [Example 176, 4-(7-fluoro-1-((6-(trifluoromethoxy)pyridin-3-yl)methyl)-benzimidazol-2-yl)-1,2,5-oxadiazol-3-amine], the IC50 under setting [1] was less than 5000 nM.

Take `Cc1nonc1-c1nc2ccccc2n1Cc1ccc(C#N)nc1` [Example 37, 5-[[2-(4-methyl-1,2,5-oxadiazol-3-yl)benzimidazol-1-yl]methyl]pyridine-2-carbonitrile]: the IC50 under setting [1] is less than 50 nM.

Turning to `c1coc(-c2nc3ccccc3n2Cc2ccncc2)c1` [Example 117, 2-(furan-2-yl)-1-(pyridin-4-ylmethyl)benzimidazole], under setting [1], the IC50 is less than 1000 nM.

Regarding `Nc1nonc1-c1nc2cccnc2n1Cc1cccnc1` [Example 59, 4-[3-(pyridin-3-ylmethyl)imidazo[4,5-b]pyridin-2-yl]-1,2,5-oxadiazol-3-amine], the IC50 under setting [1] is less than 200 nM.

`N#Cc1ccc(Cn2c(-c3nonc3N)nc3cccc(F)c32)nn1` (single isomer, unassigned) [Example 174, 6-((2-(4-amino-1,2,5-oxadiazol-3-yl)-7-fluoro-benzimidazol-1-yl)methyl)pyridazine-3-carbonitrile]: the IC50 under setting [1] was less than 100 nM.

Regarding `N#Cc1ccc(Cn2c(-c3nonc3N)nc3cccnc32)nn1` [Example 177, 6-((2-(4-amino-1,2,5-oxadiazol-3-yl)-3H-imidazo[4,5-b]pyridin-3-yl)methyl)pyridazine-3-carbonitrile], the IC50 under setting [1] is less than 1000 nM.

On to `Nc1nonc1-c1nc2cccnc2n1Cc1ccc(C(F)(F)F)nc1` [Example 19, 4-[3-[[6-(trifluoromethyl)pyridin-3-yl]methyl]imidazo[4,5-b]pyridin-2-yl]-1,2,5-oxadiazol-3-amine], for which, under setting [1], the IC50 was less than 500 nM.
